In PubChem BioAssay AID1963967 (Molecular Pharmacology Branch, DTP, NCI, 2024):

System: 855422-203-R-J1-PDC spheroids with HUVEC/MSC, viability
Assay: Anticancer human tumor 855422-203-R-J1-PDC patient-derived bladder carcinoma cell line growth inhibition [PI3K]
Conditions: for IC50: curve of first compound; for viability, T/C: stronger effect = lower value
Method in brief: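 Tumor cells grown as multi-cell spheroids with HUVEC endothelial cells and MSC fibroblast-like stroma were treated with targeted agents combined with inavolisib, alpelisib, duvelisib or copanlisib. Doses fell in half-log steps from near clinical Cmax, else from 10 microM. Viability was measured.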
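Note: agents incubated with spheroids for one week before read-out.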
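Throughout, for viability, T/C: 100% = DMSO vehicle-treated control wells.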

For `C#Cc1c(F)ccc2cc(O)cc(-c3ncc4c(N5CC6CCC(C5)N6)nc(OCC56CCCN5CC(F)C6)nc4c3F)c12` (configuration not stated) + CC(Nc1ncnc2nc[nH]c12)c1cc2cccc(Cl)c2c(=O)n1-c1ccccc1, the IC50 (second compound 0.0316 µM) was over 10 µM, the IC50 (second compound 0.1 µM) was over 10 µM and the IC50 (second compound 0.316 µM) was over 10 µM. For the same compound, the IC50 (second compound 1 µM) was over 10 µM, the IC50 (second compound 3.16 µM) was over 10 µM and the IC50 (second compound 10 µM) was over 10 µM. For the same compound, the viability, T/C (second compound 0.0316 µM, first compound 0.0316 µM) was 105%, the viability, T/C (second compound 0.0316 µM, first compound 0.1 µM) was 101% and the viability, T/C (second compound 0.0316 µM, first compound 0.316 µM) was 116%. For the same compound, the viability, T/C (second compound 0.0316 µM, first compound 1 µM) was 98.3%, the viability, T/C (second compound 0.0316 µM, first compound 3.16 µM) was 112% and the viability, T/C (second compound 0.0316 µM, first compound 10 µM) was 119%. For the same compound, the viability, T/C (second compound 0.1 µM, first compound 0.0316 µM) was 107%, the viability, T/C (second compound 0.1 µM, first compound 0.1 µM) was 102% and the viability, T/C (second compound 0.1 µM, first compound 0.316 µM) was 107%. It also gave a viability, T/C (second compound 0.1 µM, first compound 1 µM) of 101%, a viability, T/C (second compound 0.1 µM, first compound 3.16 µM) of 110% and a viability, T/C (second compound 0.1 µM, first compound 10 µM) of 112%. For the same compound, the viability, T/C (second compound 0.316 µM, first compound 0.0316 µM) was 98.1%, the viability, T/C (second compound 0.316 µM, first compound 0.1 µM) was 108% and the viability, T/C (second compound 0.316 µM, first compound 0.316 µM) was 96.6%. For the same compound, the viability, T/C (second compound 0.316 µM, first compound 1 µM) was 102%, the viability, T/C (second compound 0.316 µM, first compound 3.16 µM) was 106% and the viability, T/C (second compound 0.316 µM, first compound 10 µM) was 121%. It also gave a viability, T/C (second compound 1 µM, first compound 0.0316 µM) of 102%, a viability, T/C (second compound 1 µM, first compound 0.1 µM) of 102% and a viability, T/C (second compound 1 µM, first compound 0.316 µM) of 103%. For the same compound, the viability, T/C (second compound 1 µM, first compound 1 µM) was 109%, the viability, T/C (second compound 1 µM, first compound 3.16 µM) was 104% and the viability, T/C (second compound 1 µM, first compound 10 µM) was 115%. The viability, T/C (second compound 3.16 µM, first compound 0.0316 µM) was 107%, the viability, T/C (second compound 3.16 µM, first compound 0.1 µM) was 99.1% and the viability, T/C (second compound 3.16 µM, first compound 0.316 µM) was 112%. For the same compound, the viability, T/C (second compound 3.16 µM, first compound 1 µM) was 93.7%, the viability, T/C (second compound 3.16 µM, first compound 3.16 µM) was 98.1% and the viability, T/C (second compound 3.16 µM, first compound 10 µM) was 126%. It also gave a viability, T/C (second compound 10 µM, first compound 0.0316 µM) of 87.2%, a viability, T/C (second compound 10 µM, first compound 0.1 µM) of 82.8% and a viability, T/C (second compound 10 µM, first compound 0.316 µM) of 80%. It also gave a viability, T/C (second compound 10 µM, first compound 1 µM) of 88.5%, a viability, T/C (second compound 10 µM, first compound 3.16 µM) of 94% and a viability, T/C (second compound 10 µM, first compound 10 µM) of 88.9%.
